According to ChEMBL document CHEMBL1130701, “Dual antagonists of platelet activating factor and histamine. 3. Synthesis, biological activity and conformational implications of substituted N-acyl-bis-arylcycloheptapiperazines” (Bioorg Med Chem Lett, 1998):
pIC50, pKi: −log10 of the molar value.

How the values were obtained:
[1] = molecular target: Histamine H1 receptor (Rattus norvegicus, UniProt P31390); experiment: Binding affinity against Histamine H1 receptor using receptor binding assay in rat brain membranes; assay type: cell membranes
[2] = organism: Homo sapiens; experiment: tissue or blood; assay type: functional, organism-based; conditions: Plasma

Histamine H1 receptor, sequence (P31390 whole entry): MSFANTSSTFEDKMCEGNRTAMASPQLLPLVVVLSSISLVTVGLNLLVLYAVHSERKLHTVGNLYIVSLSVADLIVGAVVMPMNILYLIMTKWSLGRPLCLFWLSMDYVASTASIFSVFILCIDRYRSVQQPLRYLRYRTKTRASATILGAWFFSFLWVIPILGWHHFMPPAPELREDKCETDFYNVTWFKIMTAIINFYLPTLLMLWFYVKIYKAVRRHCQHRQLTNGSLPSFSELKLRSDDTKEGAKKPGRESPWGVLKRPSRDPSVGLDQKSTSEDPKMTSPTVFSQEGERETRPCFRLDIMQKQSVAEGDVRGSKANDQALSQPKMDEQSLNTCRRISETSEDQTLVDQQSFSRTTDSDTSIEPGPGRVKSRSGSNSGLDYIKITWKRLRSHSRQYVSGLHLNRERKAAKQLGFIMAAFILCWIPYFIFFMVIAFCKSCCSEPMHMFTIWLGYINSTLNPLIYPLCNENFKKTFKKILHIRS

| Compound | pKi [1] | pIC50 [2] |
| --- | --- | --- |
| CCOC(=O)N1CCN(C2c3ccc(Cl)cc3CCc3cccnc32)CC1 (stereo not given) | ≤ 5.42 | < 4.30 |
| O=CN1CCN(C2c3ccc(Cl)cc3CCc3cccnc32)CC1 (stereo not given) | 6.54 | 4.92 |
| Clc1ccc2c(c1)CCc1cccnc1C2N1CCNCC1 (stereo not given) | 8.19 | ≤ 4.64 |
| CN1CCN(C2c3ccc(Cl)cc3CCc3cccnc32)CC1 (stereo not given) | 8.19 | 4.55 |
| CC(=O)N1CCN([C@H]2c3ccc(Cl)cc3CCc3cccnc32)CC1 | < 5.00 | 6.68 |
| O=C1CCC2CN(C3c4ccc(Cl)cc4CCc4cccnc43)CCN12 (stereo not given) | 5.44 | 5.74 |
| O=C1CN(C2c3ccc(Cl)cc3CCc3cccnc32)CCN1 (stereo not given) | 6.85 | < 4.30 |
| CN1CCC(=C2c3ccc(Cl)cc3CCc3cccnc32)CC1 | – | ≤ 4.30 |
| CCCC(=O)N1CCN(C2c3ccc(Cl)cc3CCc3cccnc32)CC1 (stereo not given) | 5.44 | 4.82 |
| CC(=O)N1[C@H](C)CN(C2c3ccc(Cl)cc3CCc3cccnc32)C[C@@H]1C (stereo not given in full) | ≤ 5.15 | < 4.30 |
| CC(=O)N1CCN(C2c3ccccc3CCc3ccccc32)CC1 | 5.43 | 4.59 |
| CC(=O)N1CCN(C2c3ccc(Cl)cc3C=Cc3cccnc32)CC1 (stereo not given) | – | 6.18 |
| CC(=O)N1CCN(C2c3ccc(Cl)cc3CCc3cccnc32)CC1 (stereo not given) | 5.27 | 6.40 |
| CC(=O)N1CCN(C2c3ccc(Cl)cc3CCc3cccnc32)C[C@@H]1C (stereo not given in full) | ≤ 5.30 | 4.85 |
| CN1CCN(C2c3ccc(Cl)cc3CCc3cccnc32)CC1=O (stereo not given) | 7.31 | < 4.30 |
| CC(=O)N1CCC(=C2c3ccccc3CCc3ccccc32)CC1 | – | 4.39 |
| CC(=O)N1CCN([C@@H]2c3ccc(Cl)cc3CCc3cccnc32)CC1 | 5.44 | 5.89 |
| O=CN1CCC(=C2c3ccc(Cl)cc3CCc3cccnc32)CC1 | – | 4.85 |
| CCC(=O)N1CCC(=C2c3ccc(Cl)cc3CCc3cccnc32)CC1 | – | 5.62 |
| CCCC(=O)N1CCC(=C2c3ccc(Cl)cc3CCc3cccnc32)CC1 | – | 4.48 |
| CN(C)CCC(c1ccc(Cl)cc1)c1ccccn1 (stereo not given) [CHLORPHENIRAMINE] | – | < 4.30 |
| CCC(=O)N1CCN(C2c3ccc(Cl)cc3CCc3cccnc32)CC1 (stereo not given) | 5.60 | 5.85 |
| CC(=O)N1CCCN(C2c3ccc(Cl)cc3CCc3cccnc32)CC1 (stereo not given) | 6.01 | 4.89 |
| CC(=O)N1CCC(=C2c3ccc(Cl)cc3C=Cc3cccnc32)CC1 | – | 6.38 |
